Molecules are shown by their SMILES.

What is called melting point is the temperature, or range, at which the solid turns liquid. `CC(C)C[C@@H](C#N)NC(=O)[C@@H]1CCCC[C@@H]1NC(=O)c1ccc(-n2cncn2)cc1` [Compound 32, N-[(1S,2R)-2-({[(1S)-1-cyano-3-methylbutyl]amino}carbonyl)cyclohexyl]-4-(1H-1,2,4-triazol-1-yl)benzamide] gave a melting point of 156 to 158.9 °C.

These data come from patent US7300934B2, “Benzamide nitriles” (Roche Palo Alto LLC, priority 2003, dated 2007).
